What all share (assay): DTP human tumour cell line panel, 48 h
For assay [1], the system named is A549 NSCLC.
Assay [2] relates to 786-0 renal.
Assay [3] has as its system COLO 205 colon.
The test system of assay [4] is SW-620 colon.
For assay [5], the system named is LOX IMVI melanoma.
In assay [6] the test system is K-562 leukemia.
In assay [7] the test system is SNB-19 CNS.
For assay [8], the system named is MDA-MB-231 breast.
Assay [9] concerns HOP-92 NSCLC.
The subject of assay [10] is SNB-75 CNS.

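96-well plates; 48 h exposure; 5 concentrations. Endpoints by linear interpolation between flanking doses. Not reached: highest tested concentration assigned. GI50: concentration for 50% inhibition of growth. TGI is the concentration that stops growth completely.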

Take `CCCCn1c(-c2ccccc2)cs/c1=N\N=C1C=C(C(C)(C)C)C(=O)C(C(C)(C)C)=C1`: the TGI in assay [1], in assay [2], in assay [3], in assay [4], in assay [5] and in assay [6] was more than 100 µM in each case. In assay [7], this molecule gave a TGI of more than 100 µM.
Consider `CC(=O)Nc1ccc(NC(=O)CC(=O)Nc2ccc(NC(C)=O)cc2)cc1`, for which the TGI in assay [1], in assay [2], in assay [3], in [4], in assay [8] and in assay [9] was more than 100 µM throughout. In addition, the TGI in [5], in assay [6] and in assay [7] was more than 100 µM each time.
As to `Cc1ccc(S(=O)(=O)NC(=O)Nc2c(S(N)(=O)=O)cc(S(N)(=O)=O)c(Cl)c2Cl)cc1`, the TGI in assay [1], in assay [2], in [4], in [8], in assay [9] and in assay [5] was more than 100 µM each time. Besides, the TGI in assay [6] and in assay [7] was more than 100 µM throughout.
In the case of `CC(=O)Nc1ccc(-c2nnc(SCC(=O)Nc3cccc(C)c3)o2)cc1`, the TGI in assay [10] stood at 45.8 µM; in [1], 68.6 µM; in assay [2], 26.4 µM; in assay [3], 28 µM; in [4], 25.4 µM; in [9], 26.2 µM. For the same molecule, the figures for the TGI in assay [5] and in [6] were 15.6 µM and more than 100 µM, respectively.
As to `O=C(NN1C(=O)C(Cl)C1c1cccc(O)c1)c1ccccc1O` (centres undefined), the TGI in [10], in assay [1], in [5], in [6] and in assay [7] was more than 100 µM throughout.
Take `COc1cc(C2CC(C)(N3CCOCC3)Oc3cc4c(cc32)OCO4)cc(OC)c1OC` (centres undefined): the TGI is more than 100 µM in assay [1]; 11.5 µM in [2]; more than 100 µM in [4]; more than 100 µM in assay [8]; more than 100 µM in assay [9]; more than 100 µM in [5]. The TGI in assay [6] and in [7] was more than 100 µM each time.
As for `CC1(CO)C(O)CCC2(C)C1CCC1CC3CC12CCC3(O)CO` (centres undefined), the TGI in assay [10], in [1], in [3], in [4], in assay [9] and in [5] was more than 100 µM each time. Also, the TGI in [6] and in assay [7] was more than 100 µM in each case.
Consider `Cc1cc(C)cc(Nc2nnc3n2S(=O)(=O)c2cc(C)c(Cl)cc2S3)c1`, for which the TGI was more than 100 µM in assay [10]; 45.1 µM in assay [1]; more than 100 µM in [2]; more than 100 µM in assay [3]; 21.1 µM in assay [4]; 33.2 µM in [8]. The TGI in [5] is 21.3 µM; in assay [6], more than 100 µM; in assay [7] it was 49.3 µM.
For the molecule `c1ccc2c(c1)nnn2CNc1ccc(N2CCCCC2)cc1`, the TGI in [10], in assay [1], in assay [2], in assay [3], in assay [4] and in [9] was more than 100 µM each time. For the same molecule, the TGI in [5], in assay [6] and in [7] was more than 100 µM throughout.
Regarding `CN(C)CCCNC(=O)N/N=C/c1ccc(O)cc1`, the TGI in [10], in assay [1], in assay [2], in assay [3], in [4] and in assay [8] was more than 100 µM throughout. Moreover, the TGI in assay [6] and in assay [7] was more than 100 µM in each case.
Take `C=C1CC[C@@]2(C)[C@@H]([C@@H]1C)[C@H]1CC[C@@H]3[C@@]4(C)CC[C@H](O)C(C)(C)[C@@H]4CC[C@@]3(C)[C@]1(C)C[C@@H]2O`: the TGI is 4.65 µM in [1]; more than 100 µM in assay [3]; more than 100 µM in assay [4]; 4.75 µM in assay [8]; 4.82 µM in assay [9]; 3.47 µM in [5]. The TGI in assay [7] stood at 8.44 µM.
Consider `COc1ccc(C=Nc2ccc(-c3nc4ccccc4s3)cc2)cc1OC`, for which the TGI was 75.7 µM in assay [10]; more than 100 µM in assay [1]; 44.3 µM in [2]; 39.6 µM in assay [3]; more than 100 µM in assay [4]; 53.5 µM in assay [9]. Moreover, the TGI is 45.5 µM in assay [5], more than 100 µM in [6] and more than 100 µM in assay [7].
As to `O=[N+]([O-])c1cc(C2(N3CCCCC3)CCCCC2)sc1Br`, the TGI in assay [1] is 33.7 µM; in assay [2], 39.2 µM; in [3] it was 17.7 µM; in assay [4] it was 21.3 µM; in assay [8], 27.4 µM; in assay [9], 21.7 µM. For the same molecule, the TGI in assay [5] was determined as 15.1 µM; in assay [6], 14.1 µM; in [7], 27.6 µM.
For `O=C([CH-]C(=O)c1ccccc1)c1ccccc1.[C-]#[O+].[C-]#[O+].[Ir]`, the GI50 was 45.6 µM in assay [10]; 82.9 µM in assay [1]; 59.4 µM in assay [4]; 46.5 µM in assay [5]; 66.4 µM in [7]. For the same molecule, the concentration for total growth inhibition (TGI) in assay [10], in assay [1], in assay [4], in assay [5] and in [7] was more than 100 µM throughout.
On to `CCC(=O)OC1CCn2c1nc1c2C(=O)C(C)=C(NC(C)=O)C1=O` (centres undefined), for which the TGI in assay [10] came to 10.3 µM; in assay [1], 3.62 µM; in assay [2], 11.9 µM; in [3], 11.6 µM; in assay [4], 2.93 µM; in [9], 3.5 µM. The TGI in [5] is 2.7 µM; in [6], 4.43 µM; in assay [7], 6.75 µM.
`CC(NC(=O)Cc1ccc(OP(=O)(OCc2ccc([N+](=O)[O-])o2)N(C)CCCCCl)cc1)c1ccc(OCC2CCCCC2)c(C(N)=O)c1` (centres undefined): the TGI in [1] was 4.68 µM; in assay [2] it was 10.8 µM; in assay [3], 3.1 µM; in [4] it was 10.2 µM; in assay [8], 4.37 µM; in assay [5], 3.28 µM. Moreover, the TGI is 9.23 µM in assay [6] and 22.1 µM in assay [7].
With `CCOC(=O)/C=C/n1c2ccccc2c(=O)c2cc(OC)ccc21`, the TGI in [10] is more than 100 µM; in assay [1] it was more than 100 µM; in assay [2], more than 100 µM; in [3], more than 100 µM; in assay [9] it was more than 100 µM; in assay [5], 41.3 µM. Moreover, the TGI in assay [6] and in assay [7] was more than 100 µM throughout.
Turning to `O=C(O)c1cc2ccccc2c(Cc2c(O)c(C(=O)O)cc3ccccc23)c1O`, the concentration for total growth inhibition (TGI) in [1], in assay [2], in assay [4], in assay [8], in assay [9] and in [5] was more than 100 µM in each case. Further, the TGI in [6] and in assay [7] was more than 100 µM in each case.
On to `O=c1oc2cc(O)ccc2c2[nH]c3cc(O)ccc3c12`, for which the TGI in [10] was 46.2 µM; in [1], more than 100 µM; in [2], more than 100 µM; in assay [3], 74.9 µM; in assay [4], more than 100 µM; in [9], 95.4 µM. In addition, the TGI in assay [5] is 33.8 µM; in assay [6] it was more than 100 µM; in [7] it was more than 100 µM.
As for `N#C/C(=C\c1ccc(O)c(O)c1)c1c(C#N)c(N)nn1-c1ccccc1`, the TGI in assay [10] is more than 100 µM; in [1], 39.3 µM; in assay [2], 21.1 µM; in assay [3], 61.1 µM; in assay [4] it was more than 100 µM; in assay [9], more than 100 µM. Also, the TGI in [5] came out at 44 µM; in assay [6], 55.9 µM; in assay [7] it was 42.4 µM.
As for `Cc1cc(N(CCC#N)S(=O)(=O)c2ccccc2)ccc1C=Nc1cccc(C(=O)O)c1`, the TGI in assay [10], in assay [1], in [3], in assay [4], in assay [9] and in [6] was more than 100 µM each time. The same molecule yielded a TGI in assay [7] of more than 100 µM.
Take `COc1ccc(CN(CCN(C)C)c2ccccn2)cc1` (tested in a mixture with another compound): the TGI in [10], in assay [2], in assay [4], in assay [9], in [6] and in assay [7] was more than 100 µM in each case.
Take `CC(=O)c1ccc(N2C(=O)C3c4[nH]c5ccccc5c4C4CCC(C(C)(C)C)CC4C3C2=O)cc1` (centres undefined): the TGI in assay [10] is 94.7 µM; in assay [1], 50.9 µM; in assay [2], 34.3 µM; in assay [3], 29.1 µM; in [4] it was 54.3 µM; in assay [9], 47.1 µM. Moreover, the TGI in assay [6] and in assay [7] was more than 100 µM in each case.
As for `[N-]=[N+]=CC(=O)C1(C(=O)C=[N+]=[N-])CC1`, the TGI in assay [10], in [1], in [2], in assay [3], in [4] and in assay [5] was more than 100 µM in each case. Further, the TGI in [6] and in [7] was more than 100 µM throughout.
As for `CCN(CC)CC1CCCCN1CC(=O)N1c2cc(Cl)ccc2NC(=O)CC1C` (centres undefined), the TGI in [10], in [1], in assay [2], in [3], in [4] and in [9] was more than 100 µM in each case. The TGI in assay [5], in assay [6] and in assay [7] was more than 100 µM throughout.
For `COC1(OC)CC2C(=O)N(Cc3ccccc3)C1C(S(=O)(=O)c1ccccc1)C2C(C)S(=O)(=O)c1ccccc1` (centres undefined), the TGI in assay [1], in assay [2], in assay [3], in assay [4], in [9] and in [5] was more than 100 µM in each case. Besides, the concentration for total growth inhibition (TGI) in assay [6] and in assay [7] was more than 100 µM throughout.
As to `CC1CC(=O)Nc2ccc(Cl)cc2N1C(=O)CN1CCC(CCCCN(C)C)CC1` (centres undefined), the TGI in assay [1], in [2], in [3], in [4], in assay [9] and in assay [5] was more than 100 µM each time. Also, the TGI in [6] and in assay [7] was more than 100 µM throughout.
As to `C/C=C1\CC(C(=O)OCC)CCCCCCC1=O` (centres undefined), the TGI in assay [10], in [1], in assay [2], in assay [3], in assay [4] and in assay [8] was more than 100 µM throughout. For the same molecule, the TGI in assay [5] and in assay [7] was more than 100 µM in each case.
In the case of `Cc1ccc(S(=O)(=O)NC(=O)C2S(=O)(=O)OCCOS2(=O)=O)cc1`, the TGI in assay [10], in assay [1], in assay [2], in assay [3], in [4] and in [9] was more than 100 µM throughout. The TGI in [6] and in [7] was more than 100 µM throughout.
With `Cc1sc2c(c1C)C(=O)c1cccn1-2`, the TGI in assay [10], in [1], in assay [2], in [3], in assay [4] and in [8] was more than 100 µM in each case. Besides, the TGI in [5], in [6] and in assay [7] was more than 100 µM throughout.

These data come from PubChem BioAssay (NCI).
